The values below come from US3974140A, “Ureidoacetamido-penicillins” (Bayer Aktiengesellschaft, priority 1970, dated 1976).

Experiment in all cases: MIC, liquid medium test tube series dilution test
One test deals with E. coli 14. The format is cell-based. The settings on record: E. coli 14, 24 hours, 37°C. The essentials: (§1)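 Read-out: visual turbidity after 24 h at 37°C. The MIC, in units/ml, corresponds to the non-turbid tube in a liquid-medium test tube dilution series prepared in complete nutrient medium.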
The subject of a further test is E. coli 183/58. The format is cell-based. The conditions noted are these: E. coli 183/58, 24 hours, 37°C. In outline: as §1
Another test concerns E. coli A 261. The format is cell-based. The settings on record: E. coli A 261, 24 hours, 37°C. The essentials:
as §1

For the next test, the system named is E. coli C 165. The format is cell-based. The conditions noted are these: E. coli C 165, 24 hours, 37°C. The essentials:
as §1

A further test concerns Klebsiella 63. The format is cell-based. The conditions noted are these: Klebsiella 63, 24 hours, 37°C. In outline:
as §1

The subject of another test is Klebsiella K 10. The format is cell-based. The conditions noted are these: Klebsiella K 10, 24 hours, 37°C. The essentials:
as §1

Test [1] relates to Streptoc. faec. ATCC 9790. The format is cell-based. The settings on record: Strep. faec. (Enterococcus) ATCC 9790, 24 hours, 37°C. The essentials:
as §1

For a further test, the system named is Proteus vulg. 1017. The format is cell-based, Proteus vulgaris. The conditions noted are these: Proteus vulg. 1017, 24 hours, 37°C. In outline:
as §1

Another test relates to Proteus vulg. 3400. The format is cell-based, Proteus vulgaris. The conditions noted are these: Proteus vulg. 3400, 24 hours, 37°C. The essentials: as §1
A further test has as its system Psdm. aerug. Bonn. The format is cell-based, Pseudomonas aerug. The settings on record: 24 hours, 37°C. The essentials:
as §1

The subject of a further test is Psdm. aerug. Walter. The format is cell-based, Pseudomonas aerug. The settings on record: 24 hours, 37°C. The essentials:
as §1

In another test the test system is Staph. aureus 133. The format is cell-based, Staphylococcus aureus. The settings on record: Staph. aureus 133, 24 hours, 37°C. In outline: as §1
In the next test the test system is Staph. aureus 1777 E. The format is cell-based, Staphylococcus aureus. The settings on record: 24 hours, 37°C. In outline: as §1

Each structure is given as a SMILES string. A value given as a limit tells only on which side of the number the result lay.

Regarding `CCN(CC)C(=O)N(C)C(=O)N[C@@H](C(=O)N[C@@H]1C(=O)N2[C@@H]1SC(C)(C)[C@@H]2C(=O)O)c1ccccc1` [Example 126, Sodium D(-)-α-(3-diethylaminocarbonyl-3-methyl-ureido)-benzylpenicillin], the MIC against E. coli 14 was 12.5 units/ml; with E. coli 183/58, 50 units/ml; against E. coli A 261, above 400 units/ml; in the test with E. coli C 165, 50 units/ml; against Klebsiella 63, 200 units/ml; with Klebsiella K 10 it was 100 units/ml. Also, the MIC in [1] is given as 200 units/ml; in the test with Proteus vulg. 1017 it was 100 units/ml; in the test with Proteus vulg. 3400, 100 units/ml; against Psdm. aerug. Bonn, 100 units/ml; in the test with Psdm. aerug. Walter, 200 units/ml; against Staph. aureus 133, 1.56 units/ml. In the test with Staph. aureus 1777 E, this compound returned an MIC of 100 units/ml.

For `CN(C(=O)N[C@@H](C(=O)N[C@@H]1C(=O)N2[C@@H]1SC(C)(C)[C@@H]2C(=O)O)c1ccccc1)C(=O)c1ccc(Cl)cc1[N+](=O)[O-]` [Example 127, Sodium D(-)-α-(3-[2-nitro-4-chlorobenzoyl]-3-methyl-ureido)-benzylpenicillin], the MIC against E. coli 14 is reported as 0.78 units/ml; with E. coli 183/58, 1.56 units/ml; in the test with E. coli A 261 it was 50 units/ml; in the test with E. coli C 165, 3.12 units/ml; in the test with Klebsiella 63, 12.5 units/ml; against Klebsiella K 10 it was 12.5 units/ml. In addition, the MIC is recorded as 25 units/ml in test [1]; 3.12 units/ml in the test on Proteus vulg. 1017; 6.25 units/ml against Proteus vulg. 3400; 12.5 units/ml against Psdm. aerug. Bonn; 25 units/ml against Psdm. aerug. Walter; below 0.78 units/ml against Staph. aureus 133. This compound also showed an MIC against Staph. aureus 1777 E of 12.5 units/ml.

As for `CN(C(=O)N[C@@H](C(=O)N[C@@H]1C(=O)N2[C@@H]1SC(C)(C)[C@@H]2C(=O)O)c1ccccc1)C(=O)c1ccccc1Br` [Example 128, Sodium D(-)-α-(3-[2-bromobenzoyl]-3-methyl-ureido)-benzyl penicillin], the MIC against E. coli 14 is 0.78 units/ml; in the test with E. coli 183/58, below 0.78 units/ml; in the test with E. coli A 261, 50 units/ml; in the test on E. coli C 165, 1.56 units/ml; against Klebsiella 63, 6.25 units/ml; in the test on Klebsiella K 10, 6.25 units/ml. Also, the MIC is listed as 50 units/ml in test [1]; 1.56 units/ml in the test on Proteus vulg. 1017; 6.25 units/ml in the test with Proteus vulg. 3400; 6.25 units/ml against Psdm. aerug. Bonn; 12.5 units/ml against Psdm. aerug. Walter; below 0.78 units/ml against Staph. aureus 133. In the test with Staph. aureus 1777 E, the MIC is on record as 12.5 units/ml.

For `Cc1ccccc1C(=O)N(C)C(=O)N[C@@H](C(=O)N[C@@H]1C(=O)N2[C@@H]1SC(C)(C)[C@@H]2C(=O)O)c1ccccc1` [Example 129, Sodium D(-)-α-(3-[2-methylbenzoyl]-3-methyl-ureido)-benzylpenicillin], the MIC in the test with E. coli 14 is 0.78 units/ml; against E. coli 183/58 it was 1.56 units/ml; with E. coli A 261 it was 50 units/ml; against E. coli C 165, 1.56 units/ml; with Klebsiella 63, 6.25 units/ml; with Klebsiella K 10 it was 6.25 units/ml. Besides, the MIC in test [1] was 50 units/ml; in the test with Proteus vulg. 1017, 3.12 units/ml; against Proteus vulg. 3400 it was 6.25 units/ml; against Psdm. aerug. Bonn it was 6.25 units/ml; against Psdm. aerug. Walter it was 12.5 units/ml; against Staph. aureus 133, below 0.78 units/ml. This compound showed an MIC with Staph. aureus 1777 E of 6.25 units/ml.

For the compound `CN(C(=O)C=Cc1cccc([N+](=O)[O-])c1)C(=O)N[C@@H](C(=O)N[C@@H]1C(=O)N2[C@@H]1SC(C)(C)[C@@H]2C(=O)O)c1ccccc1` [Example 131, Sodium D(-)-α-(3-m-nitrocinnamoyl-3-methyl-ureido)-benzylpenicillin], the MIC is on record as 0.8 units/ml against E. coli 14; below 0.8 units/ml in the test on E. coli 183/58; 20-100 units/ml in the test on E. coli A 261; below 0.8 units/ml with E. coli C 165; 4-20 units/ml with Klebsiella 63; 0.8-4 units/ml with Klebsiella K 10. The MIC in test [1] is 4-20 units/ml; with Proteus vulg. 1017, 0.8-4 units/ml; with Proteus vulg. 3400, 0.8-4 units/ml; against Psdm. aerug. Bonn it was 0.8-4 units/ml; with Psdm. aerug. Walter, 0.8-4 units/ml; with Staph. aureus 133, below 0.8 units/ml. Further, the MIC against Staph. aureus 1777 E is given as 20-100 units/ml.

With `CN(C(=O)Cc1ccc([N+](=O)[O-])cc1)C(=O)N[C@@H](C(=O)N[C@@H]1C(=O)N2[C@@H]1SC(C)(C)[C@@H]2C(=O)O)c1ccccc1` [Example 132, Sodium D(-)-α-(3-[4-nitrophenacetyl]-3-methyl-ureido)-benzylpenicillin], the MIC against E. coli 14 is 0.8 units/ml; in the test on E. coli 183/58, below 0.8 units/ml; in the test with E. coli A 261 it was above 400 units/ml; in the test on E. coli C 165, 0.8-4 units/ml; in the test on Klebsiella 63 it was 20-100 units/ml; in the test with Klebsiella K 10 it was 4-20 units/ml. Besides, the MIC is recorded as 4-20 units/ml in test [1]; 4-20 units/ml with Proteus vulg. 1017; 0.8-4 units/ml in the test with Proteus vulg. 3400; 4-20 units/ml against Psdm. aerug. Bonn; 4-20 units/ml with Psdm. aerug. Walter; below 0.8 units/ml in the test on Staph. aureus 133. For the same compound, the MIC with Staph. aureus 1777 E was 20-100 units/ml.

As to `CC1(C)S[C@@H]2[C@H](NC(=O)[C@H](NC(=O)N3CCCCC3=O)c3ccccc3)C(=O)N2[C@H]1C(=O)O` [Example 134, Sodium D(-)-α-(1-piperidin-2-on-1-yl-carbonylamino)-benzylpenicillin], the MIC against E. coli 14 was 3.1 units/ml; against E. coli 183/58, 25 units/ml; in the test with E. coli A 261, above 400 units/ml; in the test on E. coli C 165 it was 25 units/ml; with Klebsiella 63, 200 units/ml; in the test with Klebsiella K 10, 50 units/ml. In addition, the MIC in [1] is 100 units/ml; against Proteus vulg. 1017, 12.5 units/ml; with Proteus vulg. 3400, 50 units/ml; in the test with Psdm. aerug. Bonn it was 100 units/ml; against Psdm. aerug. Walter it was 50 units/ml; with Staph. aureus 133, 3.1 units/ml. The compound also displayed an MIC with Staph. aureus 1777 E of 200 units/ml.

For the compound `CN(C(=O)NC(C(=O)N[C@@H]1C(=O)N2[C@@H]1SC(C)(C)[C@@H]2C(=O)O)c1cccs1)C(=O)c1ccccc1Cl` (stereo partly drawn) [Example 135, Sodium α-(3-o-chlorobenzoyl-3-methyl-ureido)-α-thienyl(2)-methylpenicillin], the MIC in the test with E. coli 14 is on record as 12.5 units/ml; against E. coli 183/58, 25 units/ml; with E. coli A 261, 400 units/ml; in the test with E. coli C 165 it was 50 units/ml; in the test on Klebsiella 63, 400 units/ml; in the test on Klebsiella K 10 it was 100 units/ml. For the same compound, the MIC is 200 units/ml in test [1]; 25 units/ml against Proteus vulg. 1017; 100 units/ml against Proteus vulg. 3400; 400 units/ml against Psdm. aerug. Bonn; 100 units/ml with Psdm. aerug. Walter; below 0.8 units/ml against Staph. aureus 133. Moreover, in the test on Staph. aureus 1777 E, the MIC stood at 100 units/ml.
